Test results from PubChem BioAssay AID192 (DTP/NCI, 2004).
Values joined by “and” are separate entries in the source; they are usually repeats but may differ in a detail not shown here. Identical values can stand only once. Toxic doses and inconclusive results are not listed.

Tested on: BDF1 mice, B16 melanoma ip, median survival T/C
Experiment: NCI In Vivo Anticancer Drug Screen. Data for tumor model B16 Melanoma (intraperitoneal) in B6D2F1 (BDF1) mice
Conditions: endpoint: median survival time, higher = longer survival
How it was run: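 The ratio T/C compares compound-treated mice with vehicle-treated controls, using survival or tumor size as the endpoint in a transplantable tumor model.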

[1] = dose: 25.0 mg/kg/injection, schedule: Q01DX009 (ip), vehicle: Klucel (hydroxypropylcellulose) (HPC)
[2] = dose: 50.0 mg/kg/injection, schedule: Q01DX009 (ip), vehicle: Klucel (hydroxypropylcellulose) (HPC)
[3] = dose: 100.0 mg/kg/injection, schedule: Q01DX009 (ip), vehicle: Klucel (hydroxypropylcellulose) (HPC)
[4] = dose: 100.0 mg/kg/injection, schedule: Q01DX009 (ip), vehicle: saline with Tween-80
[5] = dose: 200.0 mg/kg/injection, schedule: Q01DX009 (ip), vehicle: Klucel (hydroxypropylcellulose) (HPC)
[6] = dose: 200.0 mg/kg/injection, schedule: Q01DX009 (ip), vehicle: saline with Tween-80
[7] = dose: 400.0 mg/kg/injection, schedule: Q01DX009 (ip), vehicle: Klucel (hydroxypropylcellulose) (HPC)
[8] = dose: 400.0 mg/kg/injection, schedule: Q01DX009 (ip), vehicle: saline with Tween-80
[9] = dose: 50.0 mg/kg/injection, schedule: Q04DX003 (ip), vehicle: saline
[10] = dose: 100.0 mg/kg/injection, schedule: Q04DX003 (ip), vehicle: saline
[11] = dose: 12.5 mg/kg/injection, schedule: Q01DX009 (ip), vehicle: Klucel (hydroxypropylcellulose) (HPC)
[12] = dose: 200.0 mg/kg/injection, schedule: Q04DX003 (ip), vehicle: saline
[13] = dose: 400.0 mg/kg/injection, schedule: Q04DX003 (ip), vehicle: saline
[14] = dose: 25.0 mg/kg/injection, schedule: Q01DX009 (ip), vehicle: saline with Tween-80
[15] = dose: 50.0 mg/kg/injection, schedule: Q01DX009 (ip), vehicle: saline with Tween-80
[16] = dose: 100.0 mg/kg/injection, schedule: Q01DX009 (ip), vehicle: saline
[17] = dose: 200.0 mg/kg/injection, schedule: Q01DX009 (ip), vehicle: saline

## CCOc1c(Br)cc(Br)cc1/C=N/NS(=O)(=O)c1ccc(C)cc1
dose: 12.5 mg/kg/injection, schedule: Q04DX003 (ip), vehicle: Klucel (hydroxypropylcellulose) (HPC)
  T/C: 102 % of control
[1]
  T/C: 91 % of control
dose: 25.0 mg/kg/injection, schedule: Q04DX003 (ip), vehicle: Klucel (hydroxypropylcellulose) (HPC)
  T/C: 107 % of control
[2]
  T/C: 97 % of control
dose: 50.0 mg/kg/injection, schedule: Q04DX003 (ip), vehicle: Klucel (hydroxypropylcellulose) (HPC)
  T/C: 104 % of control
dose: 170.0 mg/kg/injection, schedule: Q04DX003 (ip), vehicle: Klucel (hydroxypropylcellulose) (HPC)
  T/C: 97 % of control

## Nc1nc(N)nc(N)n1
[3]
  T/C: 100 % of control
[4]
  T/C: 102 % of control
[5]
  T/C: 100 % of control
[6]
  T/C: 102 % of control
[7]
  T/C: 105 % of control
[8]
  T/C: 87 % of control
dose: 800.0 mg/kg/injection, schedule: Q01DX009 (ip), vehicle: saline with Tween-80
  T/C: 90 % of control

## CC1(C)N=C(N)N=C(N)N1c1ccc(OCC(=O)Nc2ccc(S(=O)(=O)F)cc2)c(Cl)c1
[9]
  T/C: 107 % of control
[10]
  T/C: 124 % of control

## CC(=O)NC1CCCCC1
dose: 33.0 mg/kg/injection, schedule: Q04DX003 (ip), vehicle: saline with Tween-80
  T/C: 100 % of control
dose: 75.0 mg/kg/injection, schedule: Q04DX003 (ip), vehicle: saline with Tween-80
  T/C: 93 % of control
dose: 100.0 mg/kg/injection, schedule: Q04DX003 (ip), vehicle: saline with Tween-80
  T/C: 150 % of control

## COc1ccc(/C=C(\NC(C)=O)C(=O)O)cc1
dose: 100.0 mg/kg/injection, schedule: Q04DX003 (ip), vehicle: Klucel (hydroxypropylcellulose) (HPC)
  T/C: 97 % of control
dose: 200.0 mg/kg/injection, schedule: Q04DX003 (ip), vehicle: Klucel (hydroxypropylcellulose) (HPC)
  T/C: 105 % of control
dose: 400.0 mg/kg/injection, schedule: Q04DX003 (ip), vehicle: Klucel (hydroxypropylcellulose) (HPC)
  T/C: 91 % of control

## CC(=O)OCC(COC(C)=O)(COC(C)=O)COC(C)=O
[4]
  T/C: 105 % of control
[6]
  T/C: 105 % of control
[8]
  T/C: 100 % of control

## CS(=O)(=O)OCc1c(O)c2c(c(O)c1COS(C)(=O)=O)C(=O)C=CC2=O
dose: 6.25 mg/kg/injection, schedule: Q01DX009 (ip), vehicle: Klucel (hydroxypropylcellulose) (HPC)
  T/C: 111 % of control
[11]
  T/C: 106 % of control
[1]
  T/C: 102 % of control
[2]
  T/C: 97 % of control

## COC1=C(Br)[C@H](O)[C@](O)(CC#N)C=C1Br
dose: 17.5 mg/kg/injection, schedule: Q01DX009 (ip), vehicle: Klucel (hydroxypropylcellulose) (HPC)
  T/C: 105 % of control
[1]
  T/C: 87 % of control
dose: 35.0 mg/kg/injection, schedule: Q01DX009 (ip), vehicle: Klucel (hydroxypropylcellulose) (HPC)
  T/C: 99 % of control
dose: 70.0 mg/kg/injection, schedule: Q01DX009 (ip), vehicle: Klucel (hydroxypropylcellulose) (HPC)
  T/C: 107 % of control

## NNC(=O)c1nc(N)n[nH]1
[10]
  T/C: 103 % of control
[12]
  T/C: 104 % of control
[13]
  T/C: 103 % of control

## CC(COC(=O)c1ccccc1)(COC(=O)c1ccccc1)COC(=O)c1ccccc1
[3]
  T/C: 110 % of control
[5]
  T/C: 107 % of control
[7]
  T/C: 100 % of control

## CCN1C=C/C(=C\C=C/c2cc[n+](CC)c3ccccc23)c2ccccc21
dose: 6.0 micrograms/kg/injection, schedule: Q01DX009 (ip), vehicle: saline
  T/C: 106 % of control
dose: 12.0 micrograms/kg/injection, schedule: Q01DX009 (ip), vehicle: saline
  T/C: 110 % of control
dose: 25.0 micrograms/kg/injection, schedule: Q01DX009 (ip), vehicle: saline
  T/C: 115 % of control
dose: 50.0 micrograms/kg/injection, schedule: Q01DX009 (ip), vehicle: saline
  T/C: 106 % of control

## c1ccc2c(c1)CCc1ccccc1C2NC1=NCCO1
dose: 6.25 mg/kg/injection, schedule: Q01DX009 (ip), vehicle: saline with Tween-80
  T/C: 104 % of control
dose: 12.5 mg/kg/injection, schedule: Q01DX009 (ip), vehicle: saline with Tween-80
  T/C: 100 % of control
[14]
  T/C: 92 % of control

## ClCc1c2ccccc2c(CCl)c2ccccc12
dose: 0.75 mg/kg/injection, schedule: Q01DX009 (ip), vehicle: Klucel (hydroxypropylcellulose) (HPC)
  T/C: 114 % of control
dose: 1.5 mg/kg/injection, schedule: Q01DX009 (ip), vehicle: Klucel (hydroxypropylcellulose) (HPC)
  T/C: 119 % of control

## NC(=O)CC(NC(=O)CCl)C(=O)O (centres undefined)
[15]
  T/C: 98 % of control
[4]
  T/C: 99 % of control

## O=Nc1c(O)ccc2ccccc12
[1]
  T/C: 90 % of control
[2]
  T/C: 93 % of control

## CCN1C(=O)CN(CCN2CC(=O)N(c3ccccc3)C2=S)C1=S
dose: 18.75 mg/kg/injection, schedule: Q01DX009 (ip), vehicle: saline with Tween-80
  T/C: 112 % of control
dose: 37.5 mg/kg/injection, schedule: Q01DX009 (ip), vehicle: saline with Tween-80
  T/C: 120 % of control

## Cc1cc([N+](=O)[O-])cc(C)c1OC(=O)c1ccc(N=C(N)N)cc1
[11]
  T/C: 98 % of control
[1]
  T/C: 97 % of control
[2]
  T/C: 90 % of control

## CCOC1CCC2C(CCC(/C=C/c3ccc(O)c4ncccc34)N2C)C1 (centres undefined)
[14]
  T/C: 111 % of control

## O=C1C=CC(=O)O1 (tested in a mixture with another compound)
[11]
  T/C: 124 % of control
dose: 12.5 mg/kg/injection, schedule: Q04DX003 (ip), vehicle: saline
  T/C: 111 % of control
dose: 18.75 mg/kg/injection, schedule: Q04DX003 (ip), vehicle: Klucel (hydroxypropylcellulose) (HPC)
  T/C: 97 % of control
dose: 25.0 mg/kg/injection, schedule: Q04DX003 (ip), vehicle: saline
  T/C: 96 % of control and 121 % of control
dose: 37.5 mg/kg/injection, schedule: Q04DX003 (ip), vehicle: Klucel (hydroxypropylcellulose) (HPC)
  T/C: 150 % of control
[2]
  T/C: 159 % of control
[9]
  T/C: 120 % of control and 121 % of control
dose: 75.0 mg/kg/injection, schedule: Q04DX003 (ip), vehicle: Klucel (hydroxypropylcellulose) (HPC)
  T/C: 161 % of control
[3]
  T/C: 150 % of control
dose: 150.0 mg/kg/injection, schedule: Q04DX003 (ip), vehicle: Klucel (hydroxypropylcellulose) (HPC)
  T/C: 108 % of control and 208 % of control
dose: 200.0 mg/kg/injection, schedule: Q01DX009 (ip), vehicle: other
  T/C: 104 % of control
dose: 300.0 mg/kg/injection, schedule: Q04DX003 (ip), vehicle: Klucel (hydroxypropylcellulose) (HPC)
  T/C: 152 % of control and 184 % of control
[13]
  T/C: 101 % of control

## COc1ccc(C2NC(=O)c3ccccc3N2)c(OC)c1OC (centres undefined)
[3]
  T/C: 103 % of control
[5]
  T/C: 112 % of control
[7]
  T/C: 109 % of control

## C(=C\c1ccccc1)/C[P+](c1ccccc1)(c1ccccc1)c1ccccc1
dose: 0.06 mg/kg/injection, schedule: Q01DX009 (ip), vehicle: saline sonified
  T/C: 100 % of control
dose: 1.25 mg/kg/injection, schedule: Q01DX009 (ip), vehicle: saline sonified
  T/C: 93 % of control
dose: 2.5 mg/kg/injection, schedule: Q01DX009 (ip), vehicle: saline sonified
  T/C: 97 % of control
dose: 5.0 mg/kg/injection, schedule: Q01DX009 (ip), vehicle: saline sonified
  T/C: 91 % of control

## C1CCC(C2OCCO2)CC1
[9]
  T/C: 90 % of control
[16]
  T/C: 113 % of control
[10]
  T/C: 95 % of control
[17]
  T/C: 97 % of control
[12]
  T/C: 90 % of control

## CCC(C)NC(=O)Nc1cccc(Cl)c1C (centres undefined)
[4]
  T/C: 102 % of control
[6]
  T/C: 96 % of control

## C=C1C(=O)O[C@@H]2[C@H](O)[C@@H](C)[C@@H]3C=CC(=O)[C@@]3(C)[C@H](OC(=O)C=C(C)C)[C@H]12
dose: 2.5 mg/kg/injection, schedule: Q01DX009 (ip), vehicle: Klucel (hydroxypropylcellulose) (HPC)
  T/C: 104 % of control
dose: 3.12 mg/kg/injection, schedule: Q01DX009 (ip), vehicle: saline
  T/C: 102 % of control
dose: 5.0 mg/kg/injection, schedule: Q01DX009 (ip), vehicle: Klucel (hydroxypropylcellulose) (HPC)
  T/C: 119 % of control
dose: 6.25 mg/kg/injection, schedule: Q01DX009 (ip), vehicle: saline
  T/C: 86 % of control
dose: 10.0 mg/kg/injection, schedule: Q01DX009 (ip), vehicle: Klucel (hydroxypropylcellulose) (HPC)
  T/C: 113 % of control

## CC1CN(CCC#N)CC(C)O1 (centres undefined)
[16]
  T/C: 95 % of control
[17]
  T/C: 95 % of control

## CCO/C=C1\SC(=S)N(c2ccccc2OC)C1=O
[11]
  T/C: 109 % of control
[1]
  T/C: 99 % of control and 117 % of control
[2]
  T/C: 107 % of control and 111 % of control
[3]
  T/C: 86 % of control and 107 % of control
[5]
  T/C: 111 % of control

## COc1ccc(Cl)cc1N
[14]
  T/C: 95 % of control
[15]
  T/C: 100 % of control
[4]
  T/C: 105 % of control
